# Patent EP2951180B1, “2,6,7,8 SUBSTITUTED PURINES AS HDM2 INHIBITORS” (Merck Sharp & Dohme Corp., priority 2013, dated 2014)
# pIC50: −log10 of the molar value.
# Molecular target: T1, HDM2 (Homo sapiens, UniProt Q00987)
# T1 construct: Thioredoxin (N); made in house; host or cells: E. coli strain BL21(DE3)Rosetta
# Assay: HDM2 FRET assay (inhibition of binding of FITC labeled p53-pocket peptide to HDM2)
# Conditions: Table 17.2; read-out: FRET IC50
# Outline: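 Compounds were tested in 10-point serial dilution against 0.5 nM recombinant HDM2 binding 3 nM fluorescein-labeled p53-pocket peptide. Detection used 0.25 nM terbium cryptate anti-6xHis antibody in PBS buffer containing 0.01% BSA and 0.01% Tween-20.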
# T1 sequence (Q00987 17-125): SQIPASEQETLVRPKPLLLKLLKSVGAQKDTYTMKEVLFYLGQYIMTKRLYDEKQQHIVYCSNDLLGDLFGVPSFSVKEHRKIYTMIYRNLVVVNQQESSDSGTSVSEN
row,SMILES,pIC50
1,"C[C@@H]1CN[C@@H](C)CN1c1nc2nc(-c3noc(=O)[nH]3)nc(N[C@H](C)C3CCC3)c2n1C[C@H]1CC[C@H](C)CC1 [Example 17.21, 3-(6-{[(1R)-1-cyclobutylethyl]amino}-8-[(2R,5S)-2,5-dimethylpiperazin-1-yl]-7-[(trans-4-methylcyclohexyl)methyl]-7H-purin-2-yl)-1,2,4-oxadiazol-5(4H)-one]",7.70
2,"CC(=O)N1C[C@@H](C)N(c2nc3nc(-c4noc(=O)[nH]4)nc(N[C@H](C)C4CCC4)c3n2C[C@H]2CC[C@H](C)CC2)C[C@@H]1C [Example 17.22, 3-{8-[(2R,5S)-4-acetyl-2,5-dimethylpiperazin-1-yl]-6-{[(1R)-1-cyclobutylethyl]amino}-7-[(trans-4-methylcyclohexyl)methyl]-7H-purin-2-yl}-1,2,4-oxadiazol-5(4H)-one]",8.36
3,"C[C@@H]1CN(C(=O)C2CC2)[C@@H](C)CN1c1nc2nc(-c3noc(=O)[nH]3)nc(N[C@H](C)C3CCC3)c2n1C[C@H]1CC[C@H](C)CC1 [Example 17.23, 3-(6-{[(1R)-1-cyclobutylethyl]amino}-8-[(2R,5S)-4-(cyclopropylcarbonyl) -2,5-dimethylpiperazin-1-yl]-7-[(trans-4-methylcyclohexyl)methyl]-7H-purin-2-yl)-1,2,4-oxadiazol-5(4H)-one]",8.31

# Same assay, conditions: Table 18; read-out: FRET IC50
row,SMILES,pIC50
1,"CC(C)c1ccnc(-c2nc3nc(C(=O)O)nc(N[C@H](C)C4CCC4)c3n2C[C@H]2CC[C@H](C(F)(F)F)CC2)c1 [Example 18.1, 6-(((R)-1-cyclobutylethyl)amino)-8-(4-isopropylpyridin-2-yl)-7-((trans-4-(trifluoromethyl)cyclohexyl)methyl)-7H-purine-2-carboxylic acid]",8.46
2,"CC(C)c1ccnc(-c2nc3nc(C(=O)O)nc(N[C@H](C)C4CCC4)c3n2CC2CCC(F)(F)CC2)c1 [Example 18.3, (R)-6-((1-cyclobutylethyl)amino)-7-((4,4-difluorocyclohexyl)methyl)-8-(4-isopropylpyridin-2-yl)-7H-purine-2-carboxylic acid]",7.24
3,"CCC1CCC(Cn2c(-c3cc(C(C)C)ccn3)nc3nc(-c4noc(=O)[nH]4)nc(N[C@H](C)C4CCC4)c32)C1 (stereo partly drawn) [Example 18.4, 3-(6-(((R)-1-cyclobutylethyl)amino)-7-((3-ethylcyclopentyl)methyl) -8-(4-isopropylpyridin-2-yl)-7H-purin-2-yl)-1,2,4-oxadiazol-5(4H)-one]",6.88
4,"CC1=CCC(Cn2c(-c3cc(C(C)C)ccn3)nc3nc(C(=O)O)nc(N[C@H](C)C4CCC4)c32)CC1 (stereo partly drawn) [Example 18.5, 6-(((R)-1-cyclobutylethyl)amino)-8-(4-isopropylpyridin-2-yl)-7-((4-methylcyclohex-3-en-1-yl)methyl)-7H-purine-2-carboxylic acid]",8.19
5,"CCC1=CCC(Cn2c(-c3cc(C(C)C)ccn3)nc3nc(C(=O)O)nc(N[C@H](C)C4CCC4)c32)CC1 (stereo partly drawn) [Example 18.6, 6-(((R)-1-cyclobutylethyl)amino)-7-((4-ethylcyclohex-3-en-1-yl)methyl)-8-(4-isopropylpyridin-2-yl)-7H-purine-2-carboxylic acid]",7.80
6,"CCC1=CCC(Cn2c(-c3cc(C(C)C)ccn3)nc3nc(-c4noc(=O)[nH]4)nc(N[C@H](C)C4CCC4)c32)CC1 (stereo partly drawn) [Example 18.7, 3-(6-(((R)-1-cyclobutylethyl)amino)-7-((4-ethylcyclohex-3-en-1-yl)methyl)-8-(4-isopropylpyridin-2-yl)-7H-purin-2-yl)-1,2,4-oxadiazol-5(4H)-one]",7.36
7,"CC(C)c1ccnc(-c2nc3nc(C(=O)O)nc(N[C@H](C)C4CCC4)c3n2CC2CCC(C)(C)CC2)c1 [Example 18.8, (R)-6-((1-cyclobutylethyl)amino)-7-((4,4-dimethylcyclohexyl)methyl)-8-(4-isopropylpyridin-2-yl)-7H-purine-2-carboxylic acid]",7.23
